Results reported in patent publication US20180258100A1, “RAPAMYCIN ANALOGS SHOWING IMPROVED mTORC1 SPECIFICITY” (priority 2015, published 2018).

Experiments:
mTORC1 = biological target: T1, mTORC1 (Homo sapiens, UniProt P42345+P62942); assay: Western blot of PC3 cells, 24 h at 100 nM, comparison with commercial rapalogs, mTORC1 (p-S6K); type: cell-based
T1 construct: endogenous in cells; host or cells: PC3 cells
Experimental: (§1) PC3 cells were maintained in F12K media supplemented with 10% FBS, 1% Penicillin/Streptomycin, and 2 mM L-Glutamine and cultured at 37° C. Cells were treated with 100 nM Rapamycin, Temsirolimus, Everolimus, and rapalog compounds 390, 394, 824, 384 or 405 for 24 h and harvested in RIPA buffer (300 mM NaCl, 1.0% NP-40, 0.5% sodium deoxycholate, 0.1% SDS, 50 mM Tris pH 8.0. Protein concentrations were determined using the DC protein assay (Biorad).
(§2) Equal amounts of protein were resolved by SDS-PAGE and transferred to nitrocellulose membrane using the Invitrogen Nu-Page system. The membranes were blocked for 1 h in 5% milk and incubated overnight in the appropriate antibodies. The following day, blots were washed 3 times in TBST, incubated for 2 h with secondary antibodies (donkey anti rabbit hrp conjugated), and finally washed an additional 3 times in TBST. ECL Prime (Amersham) was used to detect the proteins of interest and blots were quantified using ImageJ software.

mTORC2 = biological target: T2, mTORC2 (Homo sapiens, UniProt P42345+P62942); assay: Western blot of PC3 cells, 24 h at 100 nM, comparison with commercial rapalogs, mTORC2 (p-Akt); type: cell-based; conditions: PC-3, read-out: mTORC2 (p-Akt) activity, % of control
T2 construct: endogenous in cells; host or cells: PC3 cells
Experimental: as §1, §2

[1] = Glucose tolerance test after 2 weeks of chronic dosing; type: in vivo, male C57BL/6J mice; conditions: rapamycin 8 mg/kg, compound 390 12 mg/kg every other day, male mice
Experimental: Fortyfive C57BL/6J male mice, housed three per cage, were weighed and their body composition was measured with an EchoMRI 3-in-1 system. […] Mice received every-other-day injections of either vehicle, rapamycin (8 mg/kg), or compound 390 (12 mg/kg). A glucose tolerance test was performed after 2 weeks (morning after the 8th injection). A pyruvate tolerance test was performed after 3 weeks. Glucose stimulated insulin secretion assay was performed after 4 weeks and additional blood was collected for whole blood analysis. Body composition was measured on day −2 and day 31.
Mice were fasted overnight for 16 hours and then injected with either glucose (1 g/kg) or pyruvate (2 g/kg) intraperitoneally. For glucose and pyruvate tolerance tests, small blood samples were taken from a tail vein nick at time intervals and read using a Bayer Contour blood glucose meter and test strips. For glucose-stimulated insulin secretion, blood glucose levels were read using a glucometer and then 50 μL of blood was collected into a heparinized tube immediately prior to and 15 minutes following glucose administration. Insulin levels were determined using a Mouse Insulin ELISA kit (Crystal Chem).

[2] = Glucose challenge response; type: in vivo, female C57BL/6J mice; conditions: 2 mg/kg glucose after 1 week; rapamycin 8 mg/kg, compound 390 12 mg/kg i.p. every other day
Experimental: (§3) 10-week old female C57BL/6J mice were given intraperitoneal injections of 8 mg/kg rapamycin (LC laboratories), 12 mg/kg compound 390 or vehicle every other day for three weeks (N=5 mice/group), such as to mimic chronic exposure conditions. 24 hours after the last injection, tissues were dissected from the mice and immediately frozen in liquid nitrogen. The tissues were homogenized using the Omni TH homogenizer (Omni International) on ice in RIPA buffer and then centrifuged at 13,000 rpm for 15 minutes at 4° C. The supernatants were collected and protein concentration was determined using the DC protein assay (Biorad).
Steady state glucose levels were determined after one week from study initiation using a Bayer Contour blood glucose meter and test strips from small blood samples, which were withdrawn from a tail vein nick. […]

[3] = Fat mass by EchoMRI body composition after four weeks; type: in vivo, male C57BL/6J mice; conditions: 4 weeks of every other day administration; rapamycin 8 mg/kg, compound 390 12 mg/kg; versus vehicle
Experimental: Fortyfive C57BL/6J male mice, housed three per cage, were weighed and their body composition was measured with an EchoMRI 3-in-1 system. Cages were sorted into three groups—vehicle, rapamycin, and compound 390—such that the average weight was similar for all three groups. Mice received every-other-day injections of either vehicle, rapamycin (8 mg/kg), or compound 390 (12 mg/kg). A glucose tolerance test was performed after 2 weeks (morning after the 8th injection). A pyruvate tolerance test was performed after 3 weeks. Glucose stimulated insulin secretion assay was performed after 4 weeks and additional blood was collected for whole blood analysis. Body composition was measured on day −2 and day 31.

[4] = Plasma lipid levels after chronic i.p. dosing; type: in vivo, female C57BL/6J mice; conditions: rapamycin 8 mg/kg, compound 390 12 mg/kg i.p. every other day; versus vehicle
Experimental: as §3
Plasma lipid levels were determined at the end of the three-week exposure. Free fatty acids in the serum were measured by the HR Series NEFA-HR(2) (Wako Diagnostics, Richmond, Va.). Triglycerides and cholesterol in serum were measured by Triglycerides Liquicolor Test and Cholesterol Liquicolor Test (Stanbio laboratory, Boerne, Tex.), respectively.

[5] = Steady state glucose levels after one week of i.p. dosing; type: in vivo, female C57BL/6J mice; conditions: 8 mg/kg i.p. every other day
Experimental: as §3
Steady state glucose levels were determined after one week from study initiation using a Bayer Contour blood glucose meter and test strips from small blood samples, which were withdrawn from a tail vein nick. At the end of the second week, the animals were challenged by administration of 2 mg/kg glucose; glucose levels were determined for two hours following the challenge at 30 min intervals.

[6] = Insulin challenge response; type: in vivo, female C57BL/6J mice; conditions: 0.75 IU/kg insulin after 2 weeks; rapamycin 8 mg/kg, compound 390 12 mg/kg i.p. every other day
Experimental: FIG. 10. Response to insulin challenge following administration of 0.75 IU/kg insulin at t=2 weeks following the initiation of the intraperitoneal administrations of 8 mg/kg rapamycin, 12 mg/kg compound 390 or vehicle control every other day in female mice (N=5).
as §3

T2 sequence (P62942 2-108 limits assumed, other chains not shown): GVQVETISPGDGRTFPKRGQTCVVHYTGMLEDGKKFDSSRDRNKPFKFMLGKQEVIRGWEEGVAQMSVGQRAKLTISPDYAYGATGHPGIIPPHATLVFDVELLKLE

| SMILES | mTORC1 (p-S6K) inhibition (mTORC1) | remaining activity at 0.1 µM (mTORC2) [%] | glucose tolerance test ([1]; after 2 weeks) | fasting hyperglycemia ([1]; chronic dosing) | glucose response after glucose challenge (glucose intolerance) [2] | fat mass (adiposity) [3] | plasma free fatty acids [4] | glucose steady state level [5] [mg/dL] | increase of glucose steady state level from baseline [5] | increase of glucose steady state level versus vehicle-receiving animals [5] [fold] | glucose response after insulin challenge (insulin resistance) [6] |
| --- | --- | --- | --- | --- | --- | --- | --- | --- | --- | --- | --- |
| CO[C@H]1C[C@@H]2CC[C@@H](C)[C@@](O)(O2)C(=O)C(=O)N2CCCC[C@H]2C(=O)O[C@H]([C@H](C)C[C@@H]2CC[C@@H](OCCO)[C@H](OC)C2)CC(=O)[C@H](C)/C=C(\C)[C@@H](O)[C@@H](OC)C(=O)[C@H](C)C[C@H](C)/C=C/C=C/C=C/1C [Everolimus] | performed identically to rapamycin | ~5 | – | – | – | – | – | – | – | – | – |
| CO[C@H]1C[C@@H]2CC[C@@H](C)[C@@](O)(O2)C(=O)C(=O)N2CCCC[C@H]2C(=O)O[C@H]([C@H](C)C[C@@H]2CC[C@@H](O)[C@H](OC)C2)CC(=O)[C@H](C)/C=C(\C)[C@@H](O)[C@@H](OC)C(=O)[C@H](C)C[C@H](C)/C=C/C=C/C=C/1C [Rapamycin] | – | ~5 | impaired glucose and pyruvate tolerance tests | induced | deviates significantly from the response observed with the control animals | statistically significant increase of fat mass | substantial and statistically significant increase | ~75 | approx. 55% | 3 | deviates significantly from the response observed with the control animals |
| CO[C@H]1C[C@@H]2CC[C@@H](C)[C@@](O)(O2)C(=O)C(=O)N2CCCC[C@H]2C(=O)O[C@H]([C@H](C)C[C@@H]2CC[C@@H](OC(=O)C(C)(CO)CO)[C@H](OC)C2)CC(=O)[C@H](C)/C=C(\C)[C@@H](O)[C@@H](OC)C(=O)[C@H](C)C[C@H](C)/C=C/C=C/C=C/1C [Temsirolimus] | performed identically to rapamycin | ~5 | – | – | – | – | – | – | – | – | – |
